According to patent publication US20220213092A1, “BICYCLIC PYRAZOLE BRUTON'S TYROSINE KINASE INHIBITORS” (AbbVie Inc., priority 2020, published 2022):

Experiments:
[1] = target: T1, Phosphorylation of Y223 of BTK (Homo sapiens, UniProt Q06187); assay: Whole blood compound screening, phosphorylation of Y223 site of BTK (MSD assay); assay type: cell-based; settings: healthy human whole blood, 2 hours at 37° C., 3 separate donors; read-out: WB BTK-pY223 EC50
T1 construct: host or cells: healthy human whole blood, 3 donors
Protocol: Healthy human whole blood (WB) was collected from […]™ Technologies or […]® in sodium heparinized tubes. Whole blood was stored at ambient temperature to avoid coagulation. Each compound was tested in 3 separate donors. Compound stock solutions (10 mM) were used to generate dose titration (8 concentrations, starting concentration 10 μM, 1:4 dilution) in appropriate volume of dimethyl sulfoxide (0.2%). Whole blood was incubated with compounds in 96-well plates for 2 hours in tissue culture incubators at 37° C. under a 5% CO2 atmosphere. The whole blood was lysed in equal volume of lysis buffer (Cell Signaling Technology®, Danvers, Mass.) containing complete protease inhibitor tablet, PhosSTOP™ tablet, sodium orthovanadate and sodium fluoride and phenylmethanesulfonyl fluoride solution. The lysed whole blood was then frozen at −80° C. for overnight.
Phosphorylation of Y223 of BTK was measured using an MSD assay (Meso Scale Diagnostics, LLC, Rockville, Md.). The thawed lysed whole blood was incubated with the capturing antibody rabbit anti-human BTK (D3H5) (Cell Signaling Technology, Danvers, Mass.) at 4° C. overnight. After washing out the unbound samples, the detection antibody biotinylated rabbit anti-pY223-BTK(D9T6H) (Cell Signaling Technology®, Danvers, Mass.) was added to the plates. After washing out the unbound antibodies, SULFO-TAG Streptavidin (Meso Scale Diagnostics, LLC, Rockville, Md.) was used for detection on Meso Sector S600 (Meso Scale Diagnostics, LLC, Rockville, Md.).
The EC50 values were determined using software from Dotmatics. The activity of exemplary compounds is illustrated below.

[2] = target: T2, BTK (Homo sapiens, UniProt Q06187); assay: BTK kinase electrophoretic mobility shift assay (MSA); assay type: biochemical; settings: 50 μM ATP, 0.5 nM BTK enzyme (Nanosyn-293HEK, WT), 3 hours at 25° C.; all examples except 50, 51, 62 and 63; read-out: BTK IC50
T2 construct: purchased Nanosyn, Santa Clara, Calif; host or cells: 293HEK
Protocol: Kinase activity, unless otherwise indicated, was measured in vitro using an electrophoretic mobility shift assay (MSA). The phosphorylation of a peptide substrate by BTK and other kinases was measured. The kinase reactions were assembled in a total volume of 25 μL per well in 384 well plates. The following was added to each well: compound buffer (or control); enzyme buffer; and substrate buffer, as further described below.
The terminated reactions were analyzed using a 12 channel LABCHIP® 3000 microfluidic detection instrument (available from Caliper Life Sciences, Waltham, Mass.). […] Change in the relative fluorescence intensity of the substrate and product peaks was the parameter measured, reflecting enzyme activity. In the presence of an inhibitor, the ratio between product and substrate was altered. The signal of the product decreased, while the signal of the substrate increased. Capillary electrophoregrams (RDA acquisition files) were analyzed using HTS Well Analyzer software (available from Caliper Life Sciences, Waltham, Mass.).
Activity in each sample was determined as the product to sum ratio (PSR): P/(S+P), where P was the peak height of the product peptide and S was the peak height of the substrate peptide. For each compound, enzyme activity was measured at various concentrations (12 concentrations of compound spaced by 3× dilution intervals). Negative control samples (00 inhibition in the absence of inhibitor) and positive control samples (10000 inhibition, in the presence of 20 mM EDTA) were assembled in replicates of four and were used to calculate 00 inhibition values for each inhibitor at each concentration. Percent inhibition (Pinh) was determined using following equation: Pinh=(PSR0%−PSRinh)/(PSR0%−PSR100%)*100, where PSRinh was the product sum ratio in the presence of inhibitor, PSR0% was the average product sum ratio in the absence of inhibitor and PSR100% was the average product sum ratio in 100%−inhibition control samples.
The IC50 values of inhibitors were determined by 4 parameter sigmoidal dose response model fitting of the inhibition curves (Pinh versus inhibitor concentration) using XLfit® 4 software (available from IDBS, Boston, Mass.).

T2 sequence (Q06187 whole entry): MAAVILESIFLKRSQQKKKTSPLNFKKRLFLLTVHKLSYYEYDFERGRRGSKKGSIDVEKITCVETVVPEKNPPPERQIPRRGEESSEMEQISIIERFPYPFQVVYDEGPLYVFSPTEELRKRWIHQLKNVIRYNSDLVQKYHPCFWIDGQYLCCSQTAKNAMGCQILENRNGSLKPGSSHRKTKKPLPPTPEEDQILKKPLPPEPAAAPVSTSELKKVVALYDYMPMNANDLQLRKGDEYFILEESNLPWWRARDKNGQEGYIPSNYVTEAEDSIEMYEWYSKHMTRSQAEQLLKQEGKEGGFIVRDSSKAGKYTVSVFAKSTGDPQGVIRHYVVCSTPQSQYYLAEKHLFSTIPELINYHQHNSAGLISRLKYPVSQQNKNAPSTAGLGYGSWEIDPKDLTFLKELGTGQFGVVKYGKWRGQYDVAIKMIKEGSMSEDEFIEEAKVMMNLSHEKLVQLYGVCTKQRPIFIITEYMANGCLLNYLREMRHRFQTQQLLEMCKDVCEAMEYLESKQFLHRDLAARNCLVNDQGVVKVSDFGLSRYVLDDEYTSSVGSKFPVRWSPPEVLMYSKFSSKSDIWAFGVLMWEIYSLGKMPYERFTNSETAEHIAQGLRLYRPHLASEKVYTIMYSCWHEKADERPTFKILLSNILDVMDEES
T1 sequence (Q06187 whole entry): as above

| SMILES | EC50 [1] [nM] | IC50 [2] [nM] |
| --- | --- | --- |
| C=CC(=O)N1C[C@@H]2CN(C3CCNc4c3nn(-c3ccc(Oc5ccccc5)cc3)c4C(N)=O)C[C@@H]2C1 (mixture of isomers) [Example 66, 2-(4-phenoxyphenyl)-7-[rac-(3aR,6aS)-5-(prop-2-enoyl)hexahydropyrrolo[3,4-c]pyrrol-2(1H)-yl]-4,5,6,7-tetrahydro-2H-pyrazolo[4,3-b]pyridine-3-carboxamide] | 1820 | 65.7 |
| C=CC(=O)N1CCN(C2CCNc3c2nn(-c2ccc(Oc4ccccc4)cc2Cl)c3C(N)=O)CC1 (centres unmarked) [Example 52, 2-(2-chloro-4-phenoxyphenyl)-7-[4-(prop-2-enoyl)piperazin-1-yl]-4,5,6,7-tetrahydro-2H-pyrazolo[4,3-b]pyridine-3-carboxamide] |  | 33.3 |
| C=CC(=O)N1CCN([C@H]2CCNc3c2nn(-c2ccc(Oc4ccccc4C(F)(F)F)cc2)c3C(N)=O)CC1 [Example 61, (7S)-7-[4-(prop-2-enoyl)piperazin-1-yl]-2-{4-[2-(trifluoromethyl)phenoxy]phenyl}-4,5,6,7-tetrahydro-2H-pyrazolo[4,3-b]pyridine-3-carboxamide] |  | 27.2 |
| C=CC(=O)N1CCN([C@H]2CCNc3c2nn(-c2ccc(Oc4ccccc4C)cc2)c3C(N)=O)CC1 [Example 94, (7S)-2-[4-(2-methylphenoxy)phenyl]-7-[4-(prop-2-enoyl)piperazin-1-yl]-4,5,6,7-tetrahydro-2H-pyrazolo[4,3-b]pyridine-3-carboxamide] |  | 23.5 |
| C=CC(=O)N1CCN([C@H]2CCNc3c2nn(-c2ccc(Oc4ccc(C)cc4)cc2)c3C(N)=O)CC1 [Example 96, (7S)-2-[4-(4-methylphenoxy)phenyl]-7-[4-(prop-2-enoyl)piperazin-1-yl]-4,5,6,7-tetrahydro-2H-pyrazolo[4,3-b]pyridine-3-carboxamide] |  | 59.2 |
| C=CC(=O)N1CCN([C@H]2CCNc3c2nn(-c2ccc(Oc4ccccc4OC)cc2)c3C(N)=O)CC1 [Example 97, (7S)-2-[4-(2-methoxyphenoxy)phenyl]-7-[4-(prop-2-enoyl)piperazin-1-yl]-4,5,6,7-tetrahydro-2H-pyrazolo[4,3-b]pyridine-3-carboxamide] |  | 120 |
| C=CC(=O)N1CCN([C@H]2CCNc3c2nn(-c2ccc(Oc4ccc(OC)cc4)cc2)c3C(N)=O)CC1 [Example 99, (7S)-2-[4-(4-methoxyphenoxy)phenyl]-7-[4-(prop-2-enoyl)piperazin-1-yl]-4,5,6,7-tetrahydro-2H-pyrazolo[4,3-b]pyridine-3-carboxamide] |  | 136 |
| C=CC(=O)N1CCN([C@H]2CCNc3c2nn(-c2ccc(Oc4ccccc4OC(F)(F)F)cc2)c3C(N)=O)CC1 [Example 100, (7S)-7-[4-(prop-2-enoyl)piperazin-1-yl]-2-{4-[2-(trifluoromethoxy)phenoxy]phenyl}-4,5,6,7-tetrahydro-2H-pyrazolo[4,3-b]pyridine-3-carboxamide] |  | 46.3 |
| C=CC(=O)N1CCN([C@H]2CCNc3c2nn(-c2ccc(Oc4cccc(OC(F)(F)F)c4)cc2)c3C(N)=O)CC1 [Example 101, (7S)-7-[4-(prop-2-enoyl)piperazin-1-yl]-2-{4-[3-(trifluoromethoxy)phenoxy]phenyl}-4,5,6,7-tetrahydro-2H-pyrazolo[4,3-b]pyridine-3-carboxamide] |  | 64.1 |
| C=CC(=O)N1CCN([C@H]2CCNc3c2nn(-c2ccc(Oc4ccc(OC(F)(F)F)cc4)cc2)c3C(N)=O)CC1 [Example 102, (7S)-7-[4-(prop-2-enoyl)piperazin-1-yl]-2-{4-[4-(trifluoromethoxy)phenoxy]phenyl}-4,5,6,7-tetrahydro-2H-pyrazolo[4,3-b]pyridine-3-carboxamide] |  | > 1000 |

These reach a lower IC50 [2]. Values come first.

| EC50 [1] [nM] | IC50 [2] [nM] | SMILES |
| --- | --- | --- |
|  | 14.8 | C=CC(=O)N1CCN(C2CCNc3c2nn(-c2ccc(Oc4ccc(F)cc4)cc2)c3C(N)=O)CC1 (centres unmarked) [Example 56, 2-[4-(4-fluorophenoxy)phenyl]-7-[4-(prop-2-enoyl)piperazin-1-yl]-4,5,6,7-tetrahydro-2H-pyrazolo[4,3-b]pyridine-3-carboxamide] |
|  | 14.4 | C=CC(=O)N1CCN([C@H]2CCNc3c2nn(-c2ccc(Oc4cccc(OC)c4)cc2)c3C(N)=O)CC1 [Example 98, (7S)-2-[4-(3-methoxyphenoxy)phenyl]-7-[4-(prop-2-enoyl)piperazin-1-yl]-4,5,6,7-tetrahydro-2H-pyrazolo[4,3-b]pyridine-3-carboxamide] |
|  | 14.1 | C=CC(=O)N1CCN([C@H]2CCNc3c2nn(-c2ccc(Oc4cccc(C)c4)cc2)c3C(N)=O)CC1 [Example 95, (7S)-2-[4-(3-methylphenoxy)phenyl]-7-[4-(prop-2-enoyl)piperazin-1-yl]-4,5,6,7-tetrahydro-2H-pyrazolo[4,3-b]pyridine-3-carboxamide] |
|  | 7.63 | C=CC(=O)N1CCN(C2CCNc3c2nn(-c2ccc(Oc4cc(F)cc(F)c4)cc2)c3C(N)=O)CC1 (centres unmarked) [Example 55, 2-[4-(3,5-difluorophenoxy)phenyl]-7-[4-(prop-2-enoyl)piperazin-1-yl]-4,5,6,7-tetrahydro-2H-pyrazolo[4,3-b]pyridine-3-carboxamide] |
| 38.2 | 1.11 | C=CC(=O)N1CC(N2CCNc3c2nn(-c2ccc(Oc4ccccc4)cc2)c3C(N)=O)C1 [Example 22, 2-(4-phenoxyphenyl)-7-[1-(prop-2-enoyl)azetidin-3-yl]-4,5,6,7-tetrahydro-2H-pyrazolo[3,4-b]pyrazine-3-carboxamide] |
| 40.7 | 0.993 | C=CC(=O)N1CCN(C2CCNc3c2nn(-c2ccc(Oc4ccccc4)cc2)c3C(N)=O)CC1 (centres unmarked) [Example 3, 2-(4-phenoxyphenyl)-7-[4-(prop-2-enoyl)piperazin-1-yl]-4,5,6,7-tetrahydro-2H-pyrazolo[4,3-b]pyridine-3-carboxamide] |
| 55.6 | 0.684 | C=CC(=O)N1CCC(C2CCNc3c2nn(-c2ccc(Oc4cccc(OC)c4)cc2)c3C(N)=O)CC1 (centres unmarked) [Example 15, 2-[4-(3-methoxyphenoxy)phenyl]-7-[1-(prop-2-enoyl)piperidin-4-yl]-4,5,6,7-tetrahydro-2H-pyrazolo[4,3-b]pyridine-3-carboxamide] |
| 18.3 | 0.592 | C=CC(=O)N1CCC(N2CCNc3c2nn(-c2ccc(Oc4ccccc4)cc2)c3C(N)=O)CC1 [Example 16, 2-(4-phenoxyphenyl)-7-[1-(prop-2-enoyl)piperidin-4-yl]-4,5,6,7-tetrahydro-2H-pyrazolo[3,4-b]pyrazine-3-carboxamide] |
| 32.9 | 0.495 | C=CC(=O)N1CCC(C2CCNc3c2nn(-c2ccc(Oc4cccc(F)c4)cc2)c3C(N)=O)CC1 (centres unmarked) [Example 12, 2-[4-(3-fluorophenoxy)phenyl]-7-[1-(prop-2-enoyl)piperidin-4-yl]-4,5,6,7-tetrahydro-2H-pyrazolo[4,3-b]pyridine-3-carboxamide] |
| 42.2 | 0.426 | C=CC(=O)N1CCC(C2CCNc3c2nn(-c2ccc(Oc4ccccc4)cc2)c3C(N)=O)CC1 (racemic) [Example 1, Rac-2-(4-phenoxyphenyl)-7-[1-(prop-2-enoyl)piperidin-4-yl]-4,5,6,7-tetrahydro-2H-pyrazolo[4,3-b]pyridine-3-carboxamide] |
| 35.7 | 0.331 | C=CC(=O)N1CCC([C@H]2CCNc3c2nn(-c2ccc(Oc4ccccc4)cc2)c3C(N)=O)CC1 [Example 4, (7R)-2-(4-phenoxyphenyl)-7-[1-(prop-2-enoyl)piperidin-4-yl]-4,5,6,7-tetrahydro-2H-pyrazolo[4,3-b]pyridine-3-carboxamide] |
